Experimental data: US6416752B1, “Termite bait composition and method” (Whitmire Micro-Gen Research Laboratories, Inc., priority 2001, dated 2002)
Values joined by “and” are separate entries in the source; they are usually repeats but may differ in a detail not shown here. Equal entries are not always repeated.

Tested on: Reticulitermes virginicus
Assay: standard choice box test of termite bait compositions with killing agents
Format: in vivo
Details: for Percent Survivorship: choice with untreated pine wood; for Amount of Wood Removed: untreated pine wood blocks; for termites killed: after 25 days
Procedure: The termite bait active ingredients or killing agents diflubenzuron, emamectin benzoate and thiamethoxam were tested for their efficacy. The termite species tested was Reticulitermes virginicus. The methodology employed was the standard “choice box” test used in Example 1 in which termites were released into a central chamber with untreated wood. The central chamber was connected, using Tygon tubing (2 mm I D), with peripheral feeding chambers containing a termite bait composition of the invention (microcrystalline cellulose powder having an average particle size of 20 micrometers and a termite killing agent) or untreated pine wood. Each replicate was given the choice of one gram of the treated cellulose powder or three blocks (1 cm) of untreated pine wood. At the end of 25 or 37 days, the number of live termites was counted. At the same time, the amount of pine wood or termite bait composition consumed was measured. The treatments were replicated two times.

[1] = 25 days in bioassay, 0.05% in microcrystalline cellulose powder

| Compound | Percent Survivorship (37 days in bioassay, 0.5% in microcrystalline cellulose powder) | control of termites (after 37 days exposure) | Amount of Cellulose Powder Removed (600 h) | Percent Survivorship [1] | Amount of Wood Removed (25 days, 0.05%) | termites killed | Amount of Cellulose Powder Removed (25 days, 0.05%, one gram of treated cellulose powder offered) |
| --- | --- | --- | --- | --- | --- | --- | --- |
| O=C(NC(=O)c1c(F)cccc1F)Nc1ccc(Cl)cc1 [Dimilin, diflubenzuron] | 0.1% and 0% | almost complete control | – | – | – | – | – |
| CN1COCN(Cc2cnc(Cl)s2)/C1=N\[N+](=O)[O-] [Thiamethoxam, thiamethoxam] | – | – | 0.01 g | 0% | 0 g | 100% | – |
| emamectin benzoate | – | – | – | 0% | 0 g | 100% | 0.07 g and 0.13 g |
